In one experiment the target is T1, human 5-HT1AR (Homo sapiens, UniProt P08908).
T1 construct: expressed in transfected cells
T1 sequence (P08908 1-422): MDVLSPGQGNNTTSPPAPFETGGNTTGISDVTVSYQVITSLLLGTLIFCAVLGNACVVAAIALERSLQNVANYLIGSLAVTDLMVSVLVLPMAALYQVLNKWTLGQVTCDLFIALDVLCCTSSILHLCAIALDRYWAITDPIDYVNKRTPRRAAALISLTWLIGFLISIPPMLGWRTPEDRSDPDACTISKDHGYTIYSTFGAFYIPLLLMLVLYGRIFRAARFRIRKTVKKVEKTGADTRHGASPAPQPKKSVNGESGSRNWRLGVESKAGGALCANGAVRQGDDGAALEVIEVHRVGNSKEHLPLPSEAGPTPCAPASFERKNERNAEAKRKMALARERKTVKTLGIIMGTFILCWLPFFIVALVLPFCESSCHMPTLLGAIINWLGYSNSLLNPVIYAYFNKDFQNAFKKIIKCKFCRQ
Briefly: Radioligand binding at 5-HT1A in transfected HEK293 cells. The conditions noted are these: for Ki / 5-HT1A pKi ± SEM: HEK293 cells transfected with human 5-HT1AR, [3H]-8-OH-DPAT, at least two independent experiments; for Ki: read-out: 5-HT1A pKi ± SEM (converted). The procedure: HEK293 cells with stable expression of human 5-HT1A, 5-HT6, and 5-HT7b (prepared with the use of Lipofectamine 2000) were grown in Dulbecco’s Modified Eagle Medium (DMEM) containing 10% dialyzed fetal bovine serum (FBS) and 500 μg/mL G418 sulfate. Liver hepatocellular carcinoma Hep-G2 cells were cultured in DMEM enriched by 10% FBS, 2 mM L-glutamine, 100 IU/mL penicillin, and 50 μg/mL streptomycin (all from Sigma-Aldrich Corporation, a division of Merck KGaA, Darmstadt, Germany). Cell lines were maintained at 37 °C in a humidified atmosphere with 5% CO2. For membrane preparation, the cells were subcultured in 150 cm^2 flasks, grown to 90% confluence, washed twice with prewarmed to 37 °C phosphate buffered saline (PBS), and pelleted by centrifugation (200g) in PBS containing 0.1 mM EDTA and 1 mM dithiothreitol. Prior to membrane preparation, pellets were stored at −80 °C.
The cell pellets were thawed and homogenized in 10 volumes of assay buffer using an Ultra Turrax tissue homogenizer and centrifuged twice at 35 000g for 15 min at 4 °C, with incubation for 15 min at 37 °C in between. The composition of the assay buffers was as follows: for 5-HT1AR: 50 mM Tris HCl, 0.1 mM EDTA, 4 mM MgCl2, 10 μM pargyline, and 0.1% ascorbate; for 5-HT6R: 50 mM Tris HCl, 0.5 mM EDTA, and 4 mM MgCl2; for 5-HT7bR: 50 mM Tris HCl, 4 mM MgCl2, 10 μM pargyline, and 0.1% ascorbate. All the assays were incubated in a total volume of 200 μL in 96-well microtiter plates for 1 h at 37 °C, except 5-HT1AR which was incubated at room temperature. The process of equilibration was terminated by rapid filtration through Unifilter plates with a 96-well cell harvester and radioactivity retained on the filters was quantified on a Microbeta plate reader (PerkinElmer, USA). […] Nonspecific binding was defined with 10 μM of 5-HT in 5-HT1AR and 5-HT7R binding experiments, where 10 μM of methiothepine was used in 5-HT6R assays. Each compound was tested in triplicate at 7 concentrations (10^–10–10^–4 M). The results were analyzed with one-way ANOVA followed by the Bonferroni’s posthoc test. The inhibition constants (pKi) were calculated from the Cheng-Prusoff equation.[46] The results were expressed as means of at least two separate experiments.

The next experiment concerns the target T2, 5-HT2AR (Rattus norvegicus, UniProt P14842).
T2 construct: from tissue; host or cells: frontal cortex of male Sprague-Dawley rats
Briefly: Radioligand binding at 5-HT2A on rat frontal cortex membranes. The conditions noted are these: for selectivity 5-HT2A/5-HT1A: Antilog [pKi (5-HT1AR) – pKi (5-HT2AR)]; for Ki: read-out: 5-HT2A pKi ± SEM (converted). On the procedure: Male Sprague–Dawley rats were decapitated and their brains removed and placed on ice. The hippocampi (for the functional 5-HT1A receptor assay) or frontal cortexes (for the competitive 5-HT2A and 5-HT2C receptor assays) were dissected and homogenized with a glass homogenizer in 30 vol. ice-cold TED buffer (50 mMTris-HCl, 1 mM EDTA, 1 mM dithiotheritol, pH 7.4). Next, the homogenate was centrifuged at 21 000g for 30 min at 4 °C. The pellet was suspended in 30 vol TED buffer (pH 7.4) and incubated in a water bath for 10 min at 37 °C to remove endogenous ligands. The suspension was centrifuged again at 21 000g for 30 min at 4 °C. The pellet was resuspended in 30 vol TED buffer (pH 7.4) and the centrifugation step was repeated. The final pellet was suspended in 10 vol 50 mM Tris-HCl (pH 7.4) and stored at −80 °C until use.[47]
The 5-HT2A assay was performed according to a previously described protocol with some modifications.[48] […] Nonspecific binding was determined in the presence of 10 μM mianserin. For the 5-HT2C assay, the frontal cortex homogenates (250 μg protein/mL) were incubated in triplicate with 1 nM [^3H]mesulergine for 60 min at 36 °C in a 50 mM Tris-HCl (pH 7.4) buffer containing 0.1% ascorbate, 10 mM MgCl2, 10 μM pargyline, 100 nM spiperone, and increasing concentrations (10^–10–10^–5 M) of the compound tested. After incubation, the reaction mixture was deposited onto UniFilter-96 GF/B plates, with the aid of a FilterMate-96 Harvester. The filter plates were presoaked with 0.4% PEI for 1 h. Next, each filter well was washed with 1.75 mL of 50 mM Tris-HCl (pH 7.4) and left to dry on a heating block set to 50 °C for 2 h. Then, 45 μL of Microscint-20 scintillation fluid was added to each filter well and left to equilibrate overnight. The filter-bound radioactivity was counted in a MicroBeta^2 Microplate Counter. Curves were fitted with a one-site sigmoidal dose–response equation and pKi for each compound was calculated with the Cheng-Pursoff equation. Results were analyzed with one-way ANOVA followed by the Bonferroni’s posthoc test. The results are expressed as means ± SEM of three independent experiments.

The target in the next experiment is T3, human 5-HT6 (Homo sapiens, UniProt P50406).
T3 construct: expressed in transfected cells
T3 sequence (P50406 whole entry): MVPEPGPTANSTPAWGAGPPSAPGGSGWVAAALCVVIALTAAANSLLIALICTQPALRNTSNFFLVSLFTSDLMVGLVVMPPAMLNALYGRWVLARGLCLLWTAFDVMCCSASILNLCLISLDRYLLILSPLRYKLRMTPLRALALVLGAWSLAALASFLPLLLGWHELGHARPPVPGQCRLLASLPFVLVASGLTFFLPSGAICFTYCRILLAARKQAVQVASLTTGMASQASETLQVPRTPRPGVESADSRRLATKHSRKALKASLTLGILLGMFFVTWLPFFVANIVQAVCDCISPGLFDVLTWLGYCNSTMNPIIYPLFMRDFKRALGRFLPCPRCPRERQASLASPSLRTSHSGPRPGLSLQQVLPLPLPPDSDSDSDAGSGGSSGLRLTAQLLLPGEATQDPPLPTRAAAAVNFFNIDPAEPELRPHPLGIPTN
The experiment in a line: Radioligand binding at 5-HT6 in transfected HEK293 cells. The conditions noted are these: for selectivity 5-HT6/5-HT1A: Antilog [pKi (5-HT1AR) – pKi (5-HT6R)]; for Ki: transfected HEK293 cells, [3H]-LSD, read-out: 5-HT6 pKi ± SEM (converted).

T2 sequence (P14842 whole entry): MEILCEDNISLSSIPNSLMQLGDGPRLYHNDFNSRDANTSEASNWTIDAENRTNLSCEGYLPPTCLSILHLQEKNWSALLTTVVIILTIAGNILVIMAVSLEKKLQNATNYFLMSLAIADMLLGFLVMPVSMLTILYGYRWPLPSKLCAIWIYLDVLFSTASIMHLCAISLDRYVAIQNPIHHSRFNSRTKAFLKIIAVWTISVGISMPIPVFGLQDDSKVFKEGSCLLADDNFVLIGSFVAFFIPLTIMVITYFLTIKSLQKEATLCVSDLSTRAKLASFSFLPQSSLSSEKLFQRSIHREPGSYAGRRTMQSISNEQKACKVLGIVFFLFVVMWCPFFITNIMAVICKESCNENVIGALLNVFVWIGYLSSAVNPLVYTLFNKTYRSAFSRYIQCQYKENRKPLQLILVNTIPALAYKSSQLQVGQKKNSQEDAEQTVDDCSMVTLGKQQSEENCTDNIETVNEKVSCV

Take `c1ccc(C2(c3ccccc3)OCC(CNCCOc3ccccc3-c3ccncc3)O2)cc1` (racemic) [rac-1, N-[(2,2-diphenyl-1,3-dioxolan-4-yl)methyl]-2-[2-(pyridin-4-yl)phenoxy]ethan-1-ammonium hydrogenoxalate]: the Ki at human 5-HT1AR was 9.12 nM. Also, at 5-HT2AR, the “selectivity 5-HT2A/5-HT1A” value is 123 and the Ki was 1120 nM. On human 5-HT6, the “selectivity 5-HT6/5-HT1A” value is reported as 832 and the Ki was 7590 nM.
With `Cn1cncc1-c1ccccc1OCCNCC1COC(c2ccccc2)(c2ccccc2)O1` (racemic) [rac-2, N-((2,2-diphenyl-1,3-dioxolan-4-yl)methyl)-2-(2-(1-methyl-1H-imidazol-5-yl)phenoxy)ethan-1-ammonium hydrogenoxalate], the Ki at human 5-HT1AR is 7.41 nM. Also, on 5-HT2AR, the “selectivity 5-HT2A/5-HT1A” value is recorded as 56 and the Ki is 417 nM. On human 5-HT6, the “selectivity 5-HT6/5-HT1A” value turned out to be 676 and the Ki was 5010 nM.
As to `c1ccc(C2(c3ccccc3)OC[C@@H](CNCCOc3ccccc3-c3ccncc3)O2)cc1` [(R)-1, N-[(2,2-Diphenyl-1,3-dioxolan-4-yl)methyl]-2-[2-(pyridin-4-yl)phenoxy]ethan-1-ammonium hydrogenoxalate], the “5-HT1A pKi ± SEM” value on human 5-HT1AR is given as 8.35 ± 0.9. On 5-HT2AR, the “selectivity 5-HT2A/5-HT1A” value is recorded as 355 and the Ki is 1580 nM. In addition, at human 5-HT6, the “selectivity 5-HT6/5-HT1A” value is on record as 955 and the Ki was 4270 nM.
On to `Cn1cncc1-c1ccccc1OCCNC[C@@H]1COC(c2ccccc2)(c2ccccc2)O1` [(R)-2, N-((2,2-Diphenyl-1,3-dioxolan-4-yl)methyl)-2-(2-(1-methyl-1H-imidazol-5-yl)phenoxy)ethan-1-ammonium hydrogenoxalate], for which the Ki on human 5-HT1AR was 12 nM. On 5-HT2AR, the “selectivity 5-HT2A/5-HT1A” value was 74 and the Ki was 891 nM. On human 5-HT6, the “selectivity 5-HT6/5-HT1A” value is listed as 417 and the Ki is 5010 nM.
For `c1ccc(C2(c3ccccc3)OC[C@H](CNCCOc3ccccc3-c3ccncc3)O2)cc1` [(S)-1, N-[(2,2-Diphenyl-1,3-dioxolan-4-yl)methyl]-2-[2-(pyridin-4-yl)phenoxy]ethan-1-ammonium hydrogenoxalate], the “5-HT1A pKi ± SEM” value at human 5-HT1AR was 8.03 ± 0.10. Moreover, on 5-HT2AR, the “selectivity 5-HT2A/5-HT1A” value came to 85 and the Ki was 794 nM. In addition, at human 5-HT6, the “selectivity 5-HT6/5-HT1A” value is reported as 347 and the Ki was 3240 nM.
For the compound `Cn1cncc1-c1ccccc1OCCNC[C@H]1COC(c2ccccc2)(c2ccccc2)O1` [(S)-2, N-((2,2-Diphenyl-1,3-dioxolan-4-yl)methyl)-2-(2-(1-methyl-1H-imidazol-5-yl)phenoxy)ethan-1-ammonium hydrogenoxalate], at human 5-HT1AR, the “binding affinity at 5-HT1AR, (S)-2 vs (R)-2” value is reported as 3 fold and the Ki was 4.07 nM. Further, at 5-HT2AR, the “selectivity 5-HT2A/5-HT1A” value turned out to be 245 and the Ki is 1000 nM. On human 5-HT6, the “selectivity 5-HT6/5-HT1A” value is reported as 1349 and the Ki is 5500 nM.

Values taken from PMC8016166, “Identification of a Potent and Selective 5-HT1A Receptor Agonist with In Vitro and In Vivo Antinociceptive Activity” (ACS Chemical Neuroscience, 2020).
